From US10654833B2, “ASK1 isoindolin-1-one inhibitors and methods of use thereof” (Hepatikos Therapeutics, LLC, priority 2018, dated 2020)

Molecular target: recombinant human ASK1 protein (Homo sapiens (Human), UniProt Q99683)
Experiment: ASK1 kinase activity inhibition assay (radiometric 33P incorporation into MBP)
Assay type: biochemical
Settings: Table 3; 20 μM MBP, 10 μM 33P-ATP
Description: ASK1 Kinase Activity Inhibition Assay
Inhibition of ASK1 kinase activity was determined radiometrically using 33P substrate incorporation (Reaction Biology Corp., Malvern, Pa.). Briefly, recombinant human ASK1 protein, 20 μM substrate (myelin basic protein (MBP)), and compound (diluted from DMSO stock to give 1% final DMSO) were incubated in Base Reaction buffer (20 mM Hepes (pH 7.5), 10 mM MgCl2, 1 mM EGTA, 0.02% Brij35, 0.02 mg/mL BSA, 0.1 mM Na3VO4, 2 mM DTT, 1% DMSO) at room temperature for 20 minutes. The reaction was initiated by addition of 10 μM 33P-ATP (specific activity […]). The reaction was then allowed to proceed for 2 hours at room temperature. Upon reaction termination, the mixture was spotted on P81 exchange paper and kinase activity by incorporation of 33P into MBP substrate was detected by filter-binding method.

Sequence of recombinant human ASK1 protein (Q99683 whole entry): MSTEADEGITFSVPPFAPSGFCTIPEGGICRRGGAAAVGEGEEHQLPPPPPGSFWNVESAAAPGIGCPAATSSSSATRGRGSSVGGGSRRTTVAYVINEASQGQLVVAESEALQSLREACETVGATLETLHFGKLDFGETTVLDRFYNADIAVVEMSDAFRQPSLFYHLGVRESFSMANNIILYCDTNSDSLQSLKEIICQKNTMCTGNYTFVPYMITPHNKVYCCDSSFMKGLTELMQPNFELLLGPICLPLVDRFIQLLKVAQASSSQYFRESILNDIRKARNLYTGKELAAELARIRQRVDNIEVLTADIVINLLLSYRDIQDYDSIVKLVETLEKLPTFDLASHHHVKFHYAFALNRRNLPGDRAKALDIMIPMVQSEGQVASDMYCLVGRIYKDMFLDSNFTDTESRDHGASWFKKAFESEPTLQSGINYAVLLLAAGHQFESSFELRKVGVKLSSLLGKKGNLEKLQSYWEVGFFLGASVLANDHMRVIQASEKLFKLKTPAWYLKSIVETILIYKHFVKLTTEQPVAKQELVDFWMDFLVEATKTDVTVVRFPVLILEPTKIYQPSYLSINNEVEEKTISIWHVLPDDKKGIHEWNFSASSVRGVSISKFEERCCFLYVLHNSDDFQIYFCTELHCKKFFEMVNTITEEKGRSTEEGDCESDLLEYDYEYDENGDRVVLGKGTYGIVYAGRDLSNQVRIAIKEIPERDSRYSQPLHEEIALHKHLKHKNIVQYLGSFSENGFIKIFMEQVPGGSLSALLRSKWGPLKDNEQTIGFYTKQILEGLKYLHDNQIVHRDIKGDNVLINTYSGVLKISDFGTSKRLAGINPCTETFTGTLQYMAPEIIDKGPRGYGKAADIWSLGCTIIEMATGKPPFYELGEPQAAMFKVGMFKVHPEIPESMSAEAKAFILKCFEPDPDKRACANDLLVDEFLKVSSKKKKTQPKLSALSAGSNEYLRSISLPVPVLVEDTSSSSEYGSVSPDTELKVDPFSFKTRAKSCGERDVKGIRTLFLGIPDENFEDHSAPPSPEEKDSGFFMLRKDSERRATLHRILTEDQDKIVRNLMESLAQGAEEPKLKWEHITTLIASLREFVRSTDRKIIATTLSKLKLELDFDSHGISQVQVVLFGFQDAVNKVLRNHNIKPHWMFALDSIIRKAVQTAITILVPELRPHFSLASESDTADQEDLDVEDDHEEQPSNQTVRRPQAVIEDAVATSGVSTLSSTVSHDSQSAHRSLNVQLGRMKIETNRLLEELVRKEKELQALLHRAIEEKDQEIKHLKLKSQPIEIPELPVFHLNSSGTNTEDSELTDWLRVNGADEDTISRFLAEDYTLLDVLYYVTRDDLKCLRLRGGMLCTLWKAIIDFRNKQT

| Compound | IC50 |
| --- | --- |
| CC(C)n1cnnc1-c1cccc(N2Cc3ccc(-c4ccc(C(=O)O)cc4CO)cc3C2=O)n1 [Compound 58, 3-(Hydroxymethyl)-4-(2-(6-(4-isopropyl-4H-1,2,4-triazol-3-yl)pyridin-2-yl)-3-oxoisoindolin-5-yl)benzoic Acid] | 5.1 nM |
| COc1cc(C(=O)O)ccc1-c1ccc2c(c1)C(=O)N(c1cccc(-c3nncn3C(C)C)n1)C2 [Compound 76, 4-(2-(6-(4-Isopropyl-4H-1,2,4-triazol-3-yl)pyridin-2-yl)-3-oxoisoindolin-5-yl)-3-methoxybenzoic Acid] | 8.2 nM |
| CC(C)n1cnnc1-c1cccc(N2Cc3ccc(-c4cc(C#N)cc(C(=O)O)c4)cc3C2=O)n1 [Compound 13, 3-Cyano-5-(2-(6-(4-isopropyl-4H-1,2,4-triazol-3-yl)pyridin-2-yl)-3-oxoisoindolin-5-yl) benzoic Acid] | 1.6 nM |
| CC(C)n1cnnc1-c1cccc(N2Cc3ccc(-c4cc(C(=O)O)ccc4C#N)cc3C2=O)n1 [Compound 14, 4-Cyano-3-(2-(6-(4-isopropyl-4H-1,2,4-triazol-3-yl)pyridin-2-yl)-3-oxoisoindolin-5-yl) Benzoic Acid] | 15.6 nM |
| CC(C)n1cnnc1-c1cccc(N2Cc3ccc(-c4cc(F)cc(C(=O)O)c4)cc3C2=O)n1 [Compound 4, 3-Fluoro-5-(2-(6-(4-isopropyl-4H-1,2,4-triazol-3-yl)pyridin-2-yl)-3-oxoisoindolin-5-yl)benzoic Acid] | 6.7 nM |
| CC(C)n1cnnc1-c1cccc(N2Cc3ccc(-c4cc(C(=O)O)ccc4CO)cc3C2=O)n1 [Compound 59, 4-(Hydroxymethyl)-3-(2-(6-(4-isopropyl-4H-1,2,4-triazol-3-yl)pyridin-2-yl)-3-oxoisoindolin-5-yl)benzoic Acid] | 5.3 nM |
| Cc1ccc(C(=O)O)cc1-c1ccc2c(c1)C(=O)N(c1cccc(-c3nncn3C(C)C)n1)C2 [Compound 11, 3-(2-(6-(4-Isopropyl-4H-1,2,4-triazol-3-yl)pyridin-2-yl)-3-oxoisoindolin-5-yl)-4-methylbenzoic Acid] | 5.9 nM |
| CC(C)n1cnnc1-c1cccc(N2Cc3ccc(-c4ccc(C(=O)O)c(F)c4)cc3C2=O)n1 [Compound 67, 2-Fluoro-4-(2-(6-(4-isopropyl-4H-1,2,4-triazol-3-yl)pyridin-2-yl)-3-oxoisoindolin-5-yl)benzoic Acid] | 5.4 nM |
| CC(C)n1cnnc1-c1cccc(N2Cc3ccc(-c4c(F)cccc4C(=O)O)cc3C2=O)n1 [Compound 70, 3-Fluoro-2-(2-(6-(4-isopropyl-4H-1,2,4-triazol-3-yl)pyridin-2-yl)-3-oxoisoindolin-5-yl)benzoic Acid] | 160 nM |
| CC(C)n1cnnc1-c1cccc(N2Cc3ccc(-c4cncc(C(=O)O)c4)cc3C2=O)n1 [Compound 63, 5-(2-(6-(4-Isopropyl-4H-1,2,4-triazol-3-yl)pyridin-2-yl)-3-oxoisoindolin-5-yl)nicotinic Acid] | 5.1 nM |
| CC(C)n1cnnc1-c1cccc(N2Cc3ccc(-c4ccc5c(c4)COC5=O)cc3C2=O)n1 [Compound 82, 2-(6-(4-Isopropyl-4H-1,2,4-triazol-3-yl)pyridin-2-yl)-6-(1-oxo-1,3-dihydroisobenzofuran-5-yl)isoindolin-1-one] | 3.2 nM |
| CC(C)n1cnnc1-c1cccc(N2Cc3ccc(-c4ccc(O)c(C(=O)O)c4)cc3C2=O)n1 [Compound 64, 2-Hydroxy-5-(2-(6-(4-isopropyl-4H-1,2,4-triazol-3-yl)pyridin-2-yl)-3-oxoisoindolin-5-yl)benzoic Acid] | 7 nM |
| COc1cc(-c2ccc3c(c2)C(=O)N(c2cccc(-c4nncn4C(C)C)n2)C3)ccc1C(=O)O [Compound 75, 4-(2-(6-(4-Isopropyl-4H-1,2,4-triazol-3-yl)pyridin-2-yl)-3-oxoisoindolin-5-yl)-2-methoxybenzoic Acid] | 5.6 nM |
| CC(C)n1cnnc1-c1cccc(N2Cc3ccc(-c4cc(C(=O)O)ccc4F)cc3C2=O)n1 [Compound 5, 4-Fluoro-3-(2-(6-(4-isopropyl-4H-1,2,4-triazol-3-yl)pyridin-2-yl)-3-oxoisoindolin-5-yl)benzoic Acid] | 0.3 nM |

The next lines start with the values.

| IC50 | Compound |
| --- | --- |
| 3.9 nM | CC(C)n1cnnc1-c1cccc(N2Cc3ccc(-c4ccc5c(C(=O)O)cnn5c4)cc3C2=O)n1 [Compound 122, 6-(2-(6-(4-Isopropyl-4H-1,2,4-triazol-3-yl)pyridin-2-yl)-3-oxoisoindolin-5-yl)pyrazolo[1,5-a]pyridine-3-carboxylic Acid] |
| 46.6 nM | COC(=O)C(C)(C)c1cccc(-c2ccc3c(c2)C(=O)N(c2cccc(-c4nncn4C4CC4)n2)C3)c1 [Compound 104, Methyl 2-(3-(2-(6-(4-cyclopropyl-4H-1,2,4-triazol-3-yl)pyridin-2-yl)-3-oxoisoindolin-5-yl)phenyl)-2-methylpropanoate] |
| 6.9 nM | Cc1c(C(=O)O)cccc1-c1ccc2c(c1)C(=O)N(c1cccc(-c3nncn3C(C)C)n1)C2 [Compound 94, 3-(2-(6-(4-Isopropyl-4H-1,2,4-triazol-3-yl)pyridin-2-yl)-3-oxoisoindolin-5-yl)-2-methylbenzoic Acid] |
| 7 nM | CC(C)n1cnnc1-c1cccc(N2Cc3ccc(-c4ncc5ccc(C(=O)O)cc5n4)cc3C2=O)n1 [Compound 125, 2-(2-(6-(4-Isopropyl-4H-1,2,4-triazol-3-yl)pyridin-2-yl)-3-oxoisoindolin-5-yl)quinazoline-7-carboxylic Acid] |
| 7.3 nM | CC(C)n1cnnc1-c1cccc(N2Cc3ccc(-c4cccc(C5(C(=O)O)CC5)c4)cc3C2=O)n1 [Compound 105, 1-(3-(2-(6-(4-Isopropyl-4H-1,2,4-triazol-3-yl)pyridin-2-yl)-3-oxoisoindolin-5-yl)phenyl)cyclopropane-1-carboxylic Acid] |
| 21.7 nM | O=C(O)C1CCCN(c2ccc3c(c2)C(=O)N(c2cccc(-c4nncn4C4CC4)n2)C3)C1 (centres unmarked) [Compound 131, 1-(2-(6-(4-Cyclopropyl-4H-1,2,4-triazol-3-yl)pyridin-2-yl)-3-oxoisoindolin-5-yl)piperidine-3-carboxylic Acid] |
| 4.1 nM | CC(C)n1cnnc1-c1cccc(N2Cc3ccc(-c4ccc5nc(C(=O)O)sc5c4)cc3C2=O)n1 [Compound 121, 6-(2-(6-(4-Isopropyl-4H-1,2,4-triazol-3-yl)pyridin-2-yl)-3-oxoisoindolin-5-yl)benzo[d]thiazole-2-carboxylic Acid] |
| 6.5 nM | Cc1cc(C(=O)O)cc(-c2ccc3c(c2)C(=O)N(c2cccc(-c4nncn4C(C)C)n2)C3)n1 [Compound 115, 2-(2-(6-(4-Isopropyl-4H-1,2,4-triazol-3-yl)pyridin-2-yl)-3-oxoisoindolin-5-yl)-6-methylisonicotinic Acid] |
| 5.52 nM | O=C1c2cc(-c3ccc(-c4nnn[nH]4)cc3)ccc2CN1c1cccc(-c2nncn2C2CC2)n1 [Compound 92, 6-(4-(2H-Tetrazol-5-yl)phenyl)-2-(6-(4-cyclopropyl-4H-1,2,4-triazol-3-yl)pyridin-2-yl)isoindolin-1-one] |
| 4.9 nM | Cc1c(F)cc(C(=O)O)cc1-c1ccc2c(c1)C(=O)N(c1cccc(-c3nncn3C(C)C)n1)C2 [Compound 98, 3-Fluoro-5-(2-(6-(4-isopropyl-4H-1,2,4-triazol-3-yl)pyridin-2-yl)-3-oxoisoindolin-5-yl)-4-methylbenzoic Acid] |
| 5.2 nM | CC(C)n1cnnc1-c1cccc(N2Cc3ccc(-c4cccc(CCC(=O)O)c4)cc3C2=O)n1 [Compound 107, 3-(3-(2-(6-(4-Isopropyl-4H-1,2,4-triazol-3-yl)pyridin-2-yl)-3-oxoisoindolin-5-yl)phenyl) Propanoic Acid] |
| 5.2 nM | CC(C)n1cnnc1-c1cccc(N2Cc3ccc(-c4cccc(OCC(=O)O)c4)cc3C2=O)n1 [Compound 108, 2-(3-(2-(6-(4-Isopropyl-4H-1,2,4-triazol-3-yl)pyridin-2-yl)-3-oxoisoindolin-5-yl)phenoxy) Acetic Acid] |
| 8.3 nM | CC(C)n1cnnc1-c1cccc(N2Cc3ccc(-c4ccn5ncc(C(=O)O)c5n4)cc3C2=O)n1 [Compound 124, 5-(2-(6-(4-Isopropyl-4H-1,2,4-triazol-3-yl)pyridin-2-yl)-3-oxoisoindolin-5-yl)pyrazolo[1,5-a]pyrimidine-3-carboxylic Acid] |
| 5.2 nM | 6-(2-(6-(4-Isopropyl-4H-1,2,4-triazol-3-yl)pyridin-2-yl)-3-oxoisoindolin-5-yl)pyridazine-4-carboxylic Acid [Compound 119] |
| 7.9 nM | CC(C)n1cnnc1-c1cccc(N2Cc3ccc(-c4ccc(-c5nnn[nH]5)cc4)cc3C2=O)n1 [Compound 91, 6-(4-(2H-Tetrazol-5-yl)phenyl)-2-(6-(4-isopropyl-4H-1,2,4-triazol-3-yl)pyridin-2-yl)isoindolin-1-one] |
| 6.4 nM | CC(C)n1cnnc1-c1cccc(N2Cc3ccc(-c4cc(-c5nn[nH]n5)ccc4F)cc3C2=O)n1 [Compound 111, 6-(2-Fluoro-5-(2H-tetrazol-5-yl)phenyl)-2-(6-(4-isopropyl-4H-1,2,4-triazol-3-yl)pyridin-2-yl)isoindolin-1-one] |
| 5.44 nM | O=C1c2cc(-c3cccc(-c4nn[nH]n4)c3)ccc2CN1c1cccc(-c2nncn2C2CC2)n1 [Compound 110, 6-(3-(2H-Tetrazol-5-yl)phenyl)-2-(6-(4-cyclopropyl-4H-1,2,4-triazol-3-yl)pyridin-2-yl)isoindolin-1-one] |
| 3.28 nM | COC(=O)c1ccc(F)c(-c2ccc3c(c2)C(=O)N(c2cccc(-c4nncn4C4CC4)n2)C3)c1 [Compound 101, Methyl 3-(2-(6-(4-cyclopropyl-4H-1,2,4-triazol-3-yl)pyridin-2-yl)-3-oxoisoindolin-5-yl)-4-fluorobenzoate] |
